Reference: ChEMBL document CHEMBL1157539, “Thousands of chemical starting points for antimalarial lead identification” (Nature, 2010)

System: Plasmodium falciparum
Assay: GSK_TCMDC: Inhibition of Plasmodium falciparum 3D7 in whole erythrocytes, using parasite LDH activity as an index of growth.
Assay type: functional, organism-based
Details: Plasmodium falciparum, 3D7

## Cc1[nH]c2ccc(O)cc2c1C1CCN(CCCCCNC(=O)/C=C/c2ccc(Cl)c(Cl)c2)CC1
  XC50: 771 nM

## Cc1ccc(OCC2CCN(c3ncc(C(=O)NCCCN4CCCC4=O)cc3Cl)CC2)cc1
  XC50: 1260 nM

## CCNc1cc(C(=O)N[C@@H](Cc2ccccc2)[C@H](O)CNCCc2ccccc2)cc(N2CCCCS2(=O)=O)c1
  XC50: 936 nM

## Cc1cccc2nc(-c3ccc(-c4cccc(NC(=O)C(C)CN5CCN(C)CC5)c4)cc3)[nH]c12 (configuration not stated)
  XC50: 739 nM

## CN1CCC(N(Cc2ccc(N3CCN(Cc4c[nH]c5ccc(Cl)cc45)CC3)nc2)C2CC2)CC1
  XC50: 999 nM

## O=C(NC1CCN(Cc2cccc(C(F)(F)F)c2)CC1)c1ccc(-c2cccc(Cl)c2)s1
  XC50: 1130 nM

## Cc1ccc(NC(=O)c2ccc(-c3cc4cc(Cl)c(Cl)cc4[nH]3)cc2)cc1OCCN1CCCC1
  XC50: 991 nM

## Clc1ccc2nccc(N3CCC(CN4CCC(c5c[nH]c6ccccc56)CC4)CC3)c2c1
  XC50: 33.9 nM

## Cc1cccc2nc(-c3cccc(-c4ccc(NC(=O)Cc5ccon5)cc4)c3)[nH]c12
  XC50: 1090 nM

## COc1ccc(Cl)cc1N1CCN(CCCNC(=O)c2ccc(-c3nc4cc(Cl)c(F)cc4[nH]3)c(F)c2)CC1
  XC50: 1110 nM

## CC(CCc1ccccc1)NCC(O)c1cccc(C(F)(F)F)c1 (configuration not stated)
  XC50: 709 nM

## c1ccc(CCNCc2ccc(-c3ccc(CNCc4ccc5c(c4)OCO5)cc3)nc2)cc1
  XC50: 1250 nM

## c1cncc(Oc2ccc(Nc3ccnc4cc(-c5cccc(CNCCN6CCOCC6)c5)ccc34)cc2)c1
  XC50: 112 nM

## Cc1ccc(NC(=O)c2ccc(Cl)c(Cl)c2)cc1-c1ccc(C(=O)Nc2ccncc2)cc1
  XC50: 567 nM

## COc1ccc2nccc([C@@H](O)CN3CCC(NCc4cc5ccccc5[nH]4)CC3)c2n1
  XC50: 628 nM

## Oc1ccc(C=NNC(S)=Nc2cccc3ccccc23)c(O)c1
  XC50: 1040 nM

## O=C(Nc1cccc(-c2cc3ccccc3[nH]2)c1)C1CCN(Cc2ccccc2O)CC1
  XC50: 938 nM

## CN(c1ccc(NC(=O)c2ccc(F)cc2)cc1)C1CCN(Cc2cccc(F)c2)C1 (configuration not stated)
  XC50: 1410 nM

## C=CCN1CCC(N(Cc2cccc(Oc3ccccc3)c2)C(=O)C(c2ccccc2)c2ccccc2)CC1
  XC50: 1140 nM

## Cc1nc(C)c(-c2ccc(-c3ccc(F)cc3)cc2)c(O)c1Br
  XC50: 1070 nM

## N#CN1CC[C@H](CS(=O)(=O)c2cccc(Br)c2)C1
  XC50: 874 nM

## Cc1cc(NCC(c2ccccc2)c2ccccc2)nc(NCC2CCCCC2)n1
  XC50: 507 nM

## O=C(Nc1cccc(CN2CCN(C(=O)c3cccc(F)c3)CC2)c1)c1ccco1
  XC50: 775 nM

## COc1cc(C(=O)N2CCC(CCN3CCC4(CC3)CN(S(C)(=O)=O)c3ccccc34)CC2Cc2ccc(Cl)c(Cl)c2)cc(OC)c1OC (configuration not stated)
  XC50: 843 nM

## O=C(Nc1ccc(Oc2ccccc2)cc1)NC1CCC(CN2CCC(c3c[nH]c4ccccc34)CC2)CC1 (configuration not stated)
  XC50: 573 nM

## Cc1cc(C)c(CON2C(=N)N=C(N)NC2(C)C)cc1C
  XC50: 3.63 nM

## CC[C@H]1CN(Cc2ccccc2Br)CC[C@H]1CCCc1ccnc2ccc(O)cc12
  XC50: 1000 nM

## O=C(Cc1c[nH]cn1)Nc1cccc(-c2ccc(-c3nc4cc(F)ccc4[nH]3)cc2)c1
  XC50: 806 nM

## CN1CCN(Cc2cccc(Nc3nccc(Nc4ccc(Oc5ccccc5)cc4)n3)c2)CC1
  XC50: 296 nM

## COCCN1CCN(Cc2ccc(-c3cccc(-c4nc5ccccc5[nH]4)c3)cc2)CC1
  XC50: 1110 nM

## COc1ccc(-c2cnc3ccc(N4CCCC4)nn23)cc1OC
  XC50: 772 nM

## Fc1ccc2[nH]c(-c3cccc(-c4ccc(CN5CCN(c6cnccn6)CC5)cc4)c3)nc2c1
  XC50: 893 nM

## Cn1cncc1C(=O)Nc1cccc(-c2ccc(-c3nc4ccccc4[nH]3)s2)c1
  XC50: 796 nM

## CN1CCN(Cc2cccc(-c3ccc4c(Nc5ccc(Oc6cccnc6)cc5)ccnc4c3)c2)CC1
  XC50: 192 nM

## Cc1cc(=O)c(-c2ccc(Oc3ccc(Cl)cc3Cl)cc2)c(C)[nH]1
  XC50: 841 nM

## N#Cc1ccc(-c2ccc(C(=O)NCCCCN3CCC(c4ccc5c(c4OCc4ccncc4)CCCC5)CC3)cc2)cc1
  XC50: 757 nM

## CS(=O)(=O)Nc1cccc(-c2cnc3[nH]cc(-c4cccc(CN)c4)c3c2)c1
  XC50: 1660 nM

## CCCOc1c(CCNCCCCNCCc2ccc3ccccc3c2OCCC)ccc2ccccc12
  XC50: 482 nM

## Cc1[nH]c2ccccc2c1C1=CCN(CCCCC23CCCc4cccc(c42)NC3=O)CC1 (configuration not stated)
  XC50: 231 nM

## Cc1ccc(S(=O)(=O)N(CCCN2CCN(C)CC2)Cc2csc(-c3ccc(CNCc4ccccc4)cc3)n2)cc1
  XC50: 841 nM

## Cc1cc2nc(-c3ccc(/C=C/C(=O)NCCc4ccccc4)cc3)[nH]c2cc1C
  XC50: 779 nM

## CC(C)C[C@H](NC(=O)c1ccc(OCCN2CCOCC2)cc1)C(=O)N[C@H](/C=N/N1CC(=O)NC1=O)CCc1ccccc1
  XC50: 277 nM

## CCCc1cc(Cc2cnc(N)nc2N)cc(CCC)c1OCCCCC(=O)OCC
  XC50: 54.1 nM

## Cc1ccccc1C1CCN(C2CCC(NC(=O)/C=C/c3cccc(C(F)(F)F)c3)CC2)CC1 (configuration not stated)
  XC50: 1520 nM

## COc1cc(OC)cc(C(=O)N2CCOC(CCN3CCC(c4ccccc4)CC3)(c3ccc(Cl)c(Cl)c3)C2)c1 (configuration not stated)
  XC50: 442 nM

## Brc1ccc(Nc2nc3ccccc3nc2Nc2ccc(Br)cc2)cc1
  XC50: 783 nM

## NC1CCN(Cc2cccc(-c3ccc(-c4nc5cc(F)ccc5[nH]4)cc3)c2)C1 (configuration not stated)
  XC50: 596 nM
